In test [1] the target is T1, hCRTH2 (Homo sapiens, UniProt Q9Y5Y4).
T1 sequence (Q9Y5Y4 1-395): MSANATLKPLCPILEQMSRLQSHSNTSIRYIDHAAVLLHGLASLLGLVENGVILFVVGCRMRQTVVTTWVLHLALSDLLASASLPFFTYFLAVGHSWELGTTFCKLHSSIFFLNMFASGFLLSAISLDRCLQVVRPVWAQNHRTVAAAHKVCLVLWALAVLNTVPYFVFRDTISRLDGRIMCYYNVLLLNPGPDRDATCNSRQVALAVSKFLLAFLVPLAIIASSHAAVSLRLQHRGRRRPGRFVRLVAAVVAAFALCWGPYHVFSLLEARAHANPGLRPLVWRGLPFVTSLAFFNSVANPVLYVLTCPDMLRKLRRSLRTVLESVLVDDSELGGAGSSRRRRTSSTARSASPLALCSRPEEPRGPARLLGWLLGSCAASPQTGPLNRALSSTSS
Further details: expressed in transfected cells; host or cells: HEK (human embryonic kidney) cell line expressing hCRTH2. As to conditions: Radioligand Binding Assay B, 0.7 nM [3H]PGD2, HEK-hCRTH2 membranes; rated A-D.
Procedure: Radioligand Binding Assay B.
Competing ligands were diluted in dimethylsulfoxide (Me2SO) that was kept constant at 1% (v/v) of the final incubation volume. The reaction was initiated by the addition of 8-20 μg of membrane protein prepared from a HEK-hCRTH2 cell line. Total and non-specific binding were determined in the absence and the presence of 10 μM PGD2, respectively. Under these conditions, specific binding (total minus non-specific) of the radioligand to the receptor reached equilibrium within 50 min and was stable up to 180 min. The reaction was routinely conducted for 60 min at room temperature and terminated by rapid filtration through prewetted Unifilters GF/C (Packard), using a Tomtec MachIII semi-automated harvester (for HEK-hCRTH2). The filters were then washed with 4 mL of the same buffer and residual radioligand bound to the filter was determined by liquid scintillation counting following equilibration in 25 μl Ultima Gold F™ (Unifilter) (Packard).

Test [2] addresses T1, hCRTH2. Kind of test: biochemical. As to conditions: Radioligand Binding Assay A, 3.0 nM [3H]PGD2, HEK-hCRTH2 membranes.
Procedure: Radioligand Binding Assay A.
Competing ligands were diluted in dimethylsulfoxide (Me2SO) that was kept constant at 1% (v/v) of the final incubation volume. The reaction was initiated by the addition of 8-20 μg of membrane protein prepared from a human embryonic kidney (HEK)-hCRTH2 cell line. Total and non-specific binding were determined in the absence and the presence of 10 μM PGD2, respectively. Under these conditions, specific binding (total minus non-specific) of the radioligand to the receptor reached equilibrium within 50 min and was stable up to 180 min. The reaction was routinely conducted for 60 min at room temperature and terminated by rapid filtration through prewetted (0.3% polyethyleneimine) 96-well printed Filtermate™ (Wallac) using a Tomtec® harvester (Hamden, Conn.). After washing with cold buffer, the filter was dried for 2 minutes in microwave, and Meltilex Scintillator sheet (Wallac) was melted on for 2 min.

Read-outs that look alike come from different tables or passages of the source.

What is called Ki is a dissociation constant, usually derived from enzyme kinetics or from competition with a known ligand. Low readings indicate higher affinity, high ones lower affinity.

In turn, `O=C(O)CCC(=O)N(C1CC1)[C@@H]1c2ccc(F)cc2N(C(=O)c2ccccc2)[C@@H]2CCC[C@@H]21` (racemic) [16D, 4-{cyclopropyl[cis, cis-6-fluoro-4-(phenylcarbonyl)-2,3,3a,4,9,9a-hexahydro-1H-cyclopenta[b]quinolin-9-yl]amino}-4-oxobutanoic acid] displayed a Ki in test [1] of 20.1 to 200 nM. Compound `CCc1ccc(C(=O)N2c3cc(Cl)ccc3C(N(C(=O)CCC(=O)O)C3CCC3)C3CCCC32)cc1` (single isomer, unassigned) [17CQ, 4-[[cis, cis-6-chloro-4-(4-ethylbenzoyl)-2,3,3a,4,9,9a-hexahydro-1H-cyclopenta[b]quinolin-9-yl]cyclobutylamino]-4-oxobutanoic acid] came in with an inhibitory constant (Ki) in test [2] of 2.4 nM.

The record behind these values is patent US20140128367A1, “CYCLOALKYL-FUSED TETRAHYDROQUINOLINES AS CRTH2 RECEPTOR MODULATORS” (Merck Sharp & Dohme Corp., priority 2011, published 2014).
